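Tested at 5 concentrations; 48 h exposure; 96-well plates; endpoints linearly interpolated, else capped at highest concentration. Abbreviation: GI50, concentration required for 50% inhibition of growth.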 Calls of active or inactive are those of the source. No stated cut-off is given here; in the data, active = GI50 up to about 1.1 µM and inactive = higher.
Key:
Assay in all cases: DTP human tumour cell line panel, 48 h
A498 = tested on: A498
BT-549 = tested on: BT-549
CAKI-1 = tested on: CAKI-1
COLO 205 = tested on: COLO 205
DU-145 = tested on: DU-145
HT-29 = tested on: HT-29
KM-20L2 = tested on: KM-20L2
LOX IMVI = tested on: LOX IMVI
M14 = tested on: M14
MDA-N = tested on: MDA-N
Malme-3M = tested on: Malme-3M
NCI-H226 = tested on: NCI-H226
NCI-H460 = tested on: NCI-H460
NCI-H522 = tested on: NCI-H522
OVCAR-4 = tested on: OVCAR-4
OVCAR-5 = tested on: OVCAR-5
SK-MEL-28 = tested on: SK-MEL-28
SR = tested on: SR
TK-10 = tested on: TK-10
U-251 = tested on: U-251

SMILES	GI50 (A498)	GI50 (BT-549)	GI50 (CAKI-1)	GI50 (COLO 205)	GI50 (DU-145)	GI50 (HT-29)	GI50 (KM-20L2)	GI50 (LOX IMVI)	GI50 (M14)	GI50 (MDA-N)	GI50 (Malme-3M)	GI50 (NCI-H226)	GI50 (NCI-H460)	GI50 (NCI-H522)	GI50 (OVCAR-4)	GI50 (OVCAR-5)	GI50 (SK-MEL-28)	GI50 (SR)	GI50 (TK-10)	GI50 (U-251)
CCN(CC)CCCC(C)Nc1c2ccc(Cl)cc2nc2ccc(OC)cc12 (stereo not drawn)	2.48 µM (inactive)	2.47 µM (inactive)	1.59 µM (inactive)	1.24 µM (inactive)	3.56 µM (inactive)	1.03 µM (active)	1.33 µM (inactive)	1.07 µM (active)	1.81 µM (inactive)	1.78 µM (inactive)	1.9 µM (inactive)	4 µM (inactive)	0.673 µM (active)	1.35 µM (inactive)	1.65 µM (inactive)	2 µM (inactive)	1.61 µM (inactive)	0.895 µM (active)	3.13 µM (inactive)	1.29 µM (inactive)
CC1(C)C(=O)/C=C\C(=O)C(C)(C)C(=O)/C=C\C(=O)C(C)(C)C(=O)/C=C\C(=O)C(C)(C)C(=O)/C=C\C1=O	> 68.5 µM (inactive)	> 10 µM (inactive)	12.6 µM (inactive)	15.5 µM (inactive)	> 100 µM (inactive)	17.7 µM (inactive)	26.6 µM (inactive)	25.2 µM (inactive)	19.4 µM (inactive)	41.8 µM (inactive)	17.1 µM (inactive)	> 63 µM (inactive)	56.6 µM (inactive)	8.41 µM (inactive)	30.3 µM (inactive)	41.1 µM (inactive)	26.5 µM (inactive)	3.94 µM (inactive)	> 55.2 µM (inactive)	27.7 µM (inactive)
Cc1ccc2ccc3ccc(C)nc3c2n1 [NEOCUPROINE]	> 40.1 µM (inactive)	> 100 µM (inactive)	> 100 µM (inactive)	0.491 µM (active)	> 100 µM (inactive)	0.908 µM (active)	6.24 µM (inactive)	4.09 µM (inactive)	> 22.2 µM (inactive)	> 100 µM (inactive)	> 100 µM (inactive)	33.4 µM (inactive)	2.19 µM (inactive)	74.3 µM (inactive)	–	–	> 100 µM (inactive)	0.728 µM (active)	> 100 µM (inactive)	7.31 µM (inactive)
O=C[C@@H](CO)O[C@H](C=O)c1c[nH]c(=O)[nH]c1=O	119 µM (inactive)	79.1 µM (inactive)	71.6 µM (inactive)	77.1 µM (inactive)	100 µM (inactive)	107 µM (inactive)	84.3 µM (inactive)	93.8 µM (inactive)	126 µM (inactive)	70.8 µM (inactive)	88.7 µM (inactive)	101 µM (inactive)	105 µM (inactive)	70.1 µM (inactive)	83.9 µM (inactive)	131 µM (inactive)	85.7 µM (inactive)	35.6 µM (inactive)	104 µM (inactive)	143 µM (inactive)
CCc1cccc(CC)c1NC(=O)C(C#N)C1=C(Cl)C(=O)c2ccccc2C1=O (stereo not drawn)	19 µM (inactive)	12.4 µM (inactive)	15.6 µM (inactive)	20.3 µM (inactive)	16.8 µM (inactive)	19.9 µM (inactive)	21.4 µM (inactive)	12.7 µM (inactive)	16.8 µM (inactive)	16.7 µM (inactive)	9.23 µM (inactive)	15 µM (inactive)	22.6 µM (inactive)	8.55 µM (inactive)	16.6 µM (inactive)	18.8 µM (inactive)	20.6 µM (inactive)	1.2 µM (inactive)	21.2 µM (inactive)	15.3 µM (inactive)
